Results taken from patent publication US6737383B1, “Herbicidal oxadiazolidines” (priority 1999, dated 2004).

Experiments:
windgrass = experiment: Test E windgrass; assay type: in vivo, Apera spica-venti; conditions: Rate 250 g/ha, Postemergence; 0 to 100 scale where 0 is no effect and 100 is complete control
Protocol: (§1) Compounds evaluated in this test were formulated in a non-phytotoxic solvent mixture which included a surfactant and applied to plants that were in the 1- to 4-leaf stage (postemergence application). A mixture of sandy loam soil and greenhouse potting mix in a 60:40 ratio was used for the postemergence test.
(§2) Plantings of these crops and weed species were adjusted to produce plants of appropriate size for the postemergence test. All plant species were grown using normal greenhouse practices. Crop and weed species include annual bluegrass (Poa annua), blackgrass (Alopecurus myosuroides), black nightshade (Solanum nigra), chickweed (Stellaria media), common poppy (Papaver rhoeas), deadnettle (Lamium amplexicaule), downy brome (Bromus tectorum), field violet (Viola arvensis), galium (Galium aparine), green foxtail (Setaria viridis), Italian ryegrass (Lolium multiflorum), jointed goatgrass (Aegilops cylindrica), kochia (Kochia scoparia), lambsquarters (Chenopodium album), littleseed canarygrass (Phalaris minor), rape (Brassica napus), redroot pigweed (Amaranthus retroflexus), Russian thistle (Salsola kali), scentless chamomile (Matricaria inodora), spring barley (Hordeum vulgare), sugar beet (Beta vulgaris), sunflower (Helianthus annuus), ivyleaf speedwell (Veronica hederaefolia), spring wheat (Triticum aestivum), winter wheat (Triticum aestivum), wild buckwheat (Polygonum convolvulus), wild mustard (Sinapis arvensis), wild oat (Avena fatua), windgrass (Apera spica-venti) and winter barley (Hordeum vulgare).
(§3) Treated plants and untreated controls were maintained in a greenhouse for approximately 21 to 28 days, after which all treated plants were compared to untreated controls and visually evaluated. […] A dash response (-) means no test result.

galium = experiment: Test E galium; assay type: in vivo, Galium aparine; conditions: Preemergence
spring barley = experiment: Test E spring barley; assay type: in vivo, Hordeum vulgare; conditions: Postemergence
Procedure, shortened: (§4)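 Greenhouse-grown plants are treated (postemergence: 1- to 4-leaf stage, sandy loam/potting mix 60:40), then evaluated visually versus untreated controls some 21 to 28 days later.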

wild mustard = experiment: Test E wild mustard; assay type: in vivo, Sinapis arvensis; conditions: Postemergence
Procedure, shortened: as §4

downy brome = experiment: Test E downy brome; assay type: in vivo, Bromus tectorum; conditions: Postemergence
Procedure, shortened: as §4

black nightshade = experiment: Test E black nightshade; assay type: in vivo, Solanum nigra; conditions: Postemergence
Protocol: as §1, §2, §3

rape = experiment: Test E rape; assay type: in vivo, Brassica napus; conditions: Preemergence
hairy beggarticks = experiment: Test C postemergence hairy beggarticks; assay type: in vivo, Bidens pilosa; conditions: 0 to 100 scale, 0 no effect, 100 complete control
Protocol: as §1, with “grown for various periods of time before treatment” for “in the 1- to 4-leaf stage”
Plantings of these crops and weed species were adjusted to produce plants of appropriate size for the postemergence test. All plant species were grown using normal greenhouse practices. Crop and weed species include arrowleaf sida (Sida rhombifolia), barnyardgrass (Echinochloa crus-galli), cocklebur (Xanthium strumarium), common ragweed (Ambrosia elatior), corn (Zea mays), cotton (Gossypium hirsutum), eastern black nightshade (Solanum ptycanthum), fall panicum (Panicum dichotomiflorum), field bindweed (Convolvulus arvensis), giant foxtail (Setaria faberii), hairy beggarticks (Bidens pilosa), ivyleaf morningglory (Ipomoea hederacea), johnsongrass (Sorghum halepense), ladysthumb smartweed (Polygonum persicaria), lambsquarters (Chenopodium album), large crabgrass (Digitaria sanguinalis), purple nutsedge (Cyperus rotundus), redroot pigweed (Amaranthus retroflexus), soybean (Glycine max), surinam grass (Brachiaria decumbens), velvetleaf (Abutilon theophrasti) and wild poinsettia (Euphorbia heterophylla).
Treated plants and untreated controls were maintained in a greenhouse for approximately 14, to 21 days, after which all treated plants were compared to untreated controls and visually evaluated. Plant response ratings, summarized in Table C, were based upon a 0 to 100 scale where 0 was no effect and 100 was complete control. A dash response (−) means no test result.

common ragweed = experiment: Test C postemergence common ragweed; assay type: in vivo, Ambrosia elatior; conditions: 0 to 100 scale, 0 no effect, 100 complete control
Procedure, shortened: (§5)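 Compounds in a non-phytotoxic solvent with surfactant were sprayed postemergence on greenhouse-grown plants in 60:40 sandy loam/potting mix. After about 14 to 21 days, visual ratings against untreated controls on a 0 (no effect) to 100 (complete control) scale.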

annual bluegrass = experiment: Test E annual bluegrass; assay type: in vivo, Poa annua; conditions: Postemergence
Protocol: as §1, §2, §3

kochia = experiment: Test E kochia; assay type: in vivo, Kochia scoparia; conditions: Preemergence
field bindweed = experiment: Test C postemergence field bindweed; assay type: in vivo, Convolvulus arvensis; conditions: 0 to 100 scale, 0 no effect, 100 complete control
Procedure, shortened: as §5

soybean = experiment: Test C postemergence soybean; assay type: in vivo, Glycine max; conditions: 0 to 100 scale, 0 no effect, 100 complete control
Procedure, shortened: as §5

giant foxtail = experiment: Test C postemergence giant foxtail; assay type: in vivo, Setaria faberii; conditions: 0 to 100 scale, 0 no effect, 100 complete control
Procedure, shortened: as §5

redroot pigweed = experiment: Test C postemergence redroot pigweed; assay type: in vivo, Amaranthus retroflexus; conditions: 0 to 100 scale, 0 no effect, 100 complete control
Procedure, shortened: as §5

Green foxtail = experiment: Test D green foxtail; assay type: in vivo; conditions: Rate 250 g/ha; Postemergence; 0 to 100 scale
large crabgrass = experiment: Test D large crabgrass; assay type: in vivo, Digitaria sanguinalis; conditions: Postemergence, 0 to 100 scale
[1] = Rate 125 g/ha, 0 to 100 scale (0 no effect, 100 complete control)
[2] = Rate 250 g/ha, 0 to 100 scale where 0 is no effect and 100 is complete control

CC(C)N(C(=O)n1oc(=O)n(C)c1=O)c1ccc(F)cc1 [Compound 138]
Windgrass plant response rating (windgrass): 95 | Plant response rating, Galium (galium; [1]): 50 | Galium plant response rating (0 to 100 scale) (galium; Rate 250 g/ha): 70 | Plant response rating, Spring Barley (spring barley; Rate 125 g/ha, 0 to 100 scale): 0 | Spring Barley plant response rating (spring barley; [2]): 5 | Plant response rating, Wild mustard (wild mustard; Rate 125 g/ha, 0 to 100 scale): 0 | Wild mustard plant response rating (wild mustard; [2]): 0 | Plant response rating, Downy brome (downy brome; Rate 125 g/ha, 0 to 100 scale): 0 | Downy brome plant response rating (downy brome; [2]): 2 | Plant response rating, Blk nightshade (black nightshade; Rate 125 g/ha, 0 to 100 scale): 20 | Blk nightshade plant response rating (black nightshade; [2]): 60 | Plant response rating, Rape (rape; [1]): 30 | Rape plant response rating (0 to 100 scale) (rape; Rate 250 g/ha): 95 | Plant response rating H. beggarticks (hairy beggarticks; Rate 280 g/ha): 10 | Plant response rating H. beggarticks (hairy beggarticks; Rate 1120 g/ha): 80 | Plant response rating Common ragweed (common ragweed; Rate 140 g/ha): 0 | Plant response rating Common ragweed (common ragweed; Rate 280 g/ha): 0 | Plant response rating Common ragweed (common ragweed; Rate 560 g/ha): 0 | Plant response rating, Annual bluegras (annual bluegrass; Rate 125 g/ha, 0 to 100 scale): 0 | Annual bluegras plant response rating (annual bluegrass; [2]): 10 | Plant response rating, Kochia (kochia; [1]): 20 | Kochia plant response rating (0 to 100 scale) (kochia; Rate 250 g/ha): 40 | Plant response rating Field bindweed (field bindweed; Rate 140 g/ha): 0 | Plant response rating Field bindweed (field bindweed; Rate 280 g/ha): 0 | Plant response rating Field bindweed (field bindweed; Rate 560 g/ha): 0 | Plant response rating Field bindweed (field bindweed; Rate 1120 g/ha): 50 | Plant response rating, Soybean (soybean; Rate 140 g/ha): 10 | Plant response rating, Soybean (soybean; Rate 280 g/ha): 30 | Plant response rating, Soybean (soybean; Rate 560 g/ha): 30 | Plant response rating, Soybean (soybean; Rate 1120 g/ha): 40 | Plant response rating, Giant foxtail (giant foxtail; Rate 140 g/ha): 0 | Plant response rating, Giant foxtail (giant foxtail; Rate 280 g/ha): 15 | Plant response rating, Giant foxtail (giant foxtail; Rate 560 g/ha): 80 | Plant response rating, Giant foxtail (giant foxtail; Rate 1120 g/ha): 85 | Plant response rating, Redroot pigweed (redroot pigweed; Rate 140 g/ha): 0 | Plant response rating, Redroot pigweed (redroot pigweed; Rate 280 g/ha): 10 | Plant response rating, Redroot pigweed (redroot pigweed; Rate 560 g/ha): 40 | Plant response rating, Redroot pigweed (redroot pigweed; Rate 1120 g/ha): 70

CC(C)N(C(=O)n1oc(=O)n(C2CCCCCC2)c1=O)c1ccc(F)cc1F [Compound 342]
Plant response rating, Green foxtail (Green foxtail): 100 | Plant response rating, Large crabgrass (large crabgrass; Rate 16 g/ha, 0 no injury, 100 complete control): 0 | Plant response rating, Large crabgrass (large crabgrass; Rate 32 g/ha, 0 no injury, 100 complete control): 0 | Plant response rating, Large crabgrass (large crabgrass; Rate 64 g/ha, 0 no injury, 100 complete control): 40 | Plant response rating, Large crabgrass (large crabgrass; Rate 125 g/ha, 0 no injury, 100 complete control): 100 | Plant response rating, Large crabgrass (large crabgrass; Rate 250 g/ha): 100
